The values that follow come from US7851474B2, “Dipiperazinyl ketones and related analogues” (Neurogen Corporation, priority 2005, dated 2010).

In one assay the target is T1, chimeric human H3 receptor (Homo sapiens, UniProt Q9Y5N1, E19D).
T1 construct: made in house; host or cells: Sf9 insect cells (baculovirus infection); P2 membrane preparation
T1 sequence (Q9Y5N1 with tags, fused parts or gaps E19D): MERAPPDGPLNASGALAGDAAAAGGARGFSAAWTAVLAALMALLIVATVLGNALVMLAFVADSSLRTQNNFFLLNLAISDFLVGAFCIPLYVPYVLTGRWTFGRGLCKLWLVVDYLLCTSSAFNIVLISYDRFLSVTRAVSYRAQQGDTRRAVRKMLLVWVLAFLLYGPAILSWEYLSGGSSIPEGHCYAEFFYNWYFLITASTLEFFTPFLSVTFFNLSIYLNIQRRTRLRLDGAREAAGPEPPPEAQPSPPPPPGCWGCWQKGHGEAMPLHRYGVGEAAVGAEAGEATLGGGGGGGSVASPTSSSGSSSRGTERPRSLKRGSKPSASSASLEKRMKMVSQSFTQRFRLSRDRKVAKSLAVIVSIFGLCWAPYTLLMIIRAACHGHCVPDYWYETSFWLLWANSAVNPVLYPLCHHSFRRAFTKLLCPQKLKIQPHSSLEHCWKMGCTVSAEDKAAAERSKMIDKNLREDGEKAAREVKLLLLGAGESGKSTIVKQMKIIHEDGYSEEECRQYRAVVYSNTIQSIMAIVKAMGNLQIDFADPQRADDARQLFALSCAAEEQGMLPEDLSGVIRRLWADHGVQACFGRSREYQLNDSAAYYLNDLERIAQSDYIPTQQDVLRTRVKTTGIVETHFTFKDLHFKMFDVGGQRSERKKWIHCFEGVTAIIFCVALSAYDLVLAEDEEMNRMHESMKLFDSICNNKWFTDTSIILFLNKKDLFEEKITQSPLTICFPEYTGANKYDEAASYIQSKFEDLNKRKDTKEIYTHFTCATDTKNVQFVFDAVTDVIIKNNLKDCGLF
Put plainly: Chimeric human H3 receptor GTP binding assay (agonist-stimulated GTP-gamma35S binding, Example 7). It is filed as biochemical.
Details: not given
The method in brief:
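IC50 values come from non-linear regression of dose-response curves of filter-bound GTP-gamma^35S, counted by scintillation. Membranes were from infected Sf9 cells carrying receptor plus G-protein subunits, 35 μg/tube, with 10 μM GDP present.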
A general note: Binding of GTPγS marks nucleotide exchange on a G protein.
Take `CCC(C)N1CCN(C(=O)CN2CCN(c3ccccc3C)CC2)CC1` (stereo not drawn) [Compound 868, 1-sec-butyl-4-{[4-(2-methylphenyl)piperazin-1-yl]acetyl}piperazine]: the inhibitory constant (Ki) – broadly, a dissociation constant, usually derived from enzyme kinetics or from competition with a known ligand – is less than 1000 nM.
Still for that read-out and setting: then `CC(C)N1CCN(C(=O)CN2CCN(c3cccc(Cl)c3Cl)CC2)CC1` [Compound 262, 1-(2,3-dichlorophenyl)-4-[2-(4-isopropylpiperazin-1-yl)-2-oxoethyl]piperazine], with less than 1000 nM.

Still in this assay, the particulars now being: "*" in Ki of Table II; assay of Example 7; read-out: Ki.
Turning to `O=C(CN1CCN(c2ccc(-c3ccc(Cl)c(C(F)(F)F)c3)cc2)CC1)N1CCN(C2CCC2)CC1` [Compound 463, 1-[4′-chloro-3′-(trifluoromethyl)biphenyl-4-yl]-4-[2-(4-cyclobutylpiperazin-1-yl)-2-oxoethyl]piperazine], the Ki is less than 1000 nM.

Still in this assay, the particulars now being: Table II "Ki", symbol "*": Ki in the assay of Example 7; read-out: Ki.
Take `Cc1cc(-c2cnc(N3CCN(CC(=O)N4CCN(C5CCC5)CC4)CC3)cn2)ccc1F` [Compound 923, 2-{4-[2-(4-cyclobutylpiperazin-1-yl)-2-oxoethyl]piperazin-1-yl}-5-(4-fluoro-3-methylphenyl)pyrazine]: the Ki was less than 1000 nM.
With `O=C(CN1CCC(N2CCCC2)CC1)N1CCN(C2CCCCC2)CC1` [Compound 806, 1-cyclohexyl-4-[(4-pyrrolidin-1-ylpiperidin-1-yl)acetyl]piperazine], the inhibition constant (Ki) is less than 1000 nM.
Still for that read-out and setting: then `Cc1ccc(-c2cnc(N3CCN(CC(=O)N4CCN(C5CCC5)CC4)CC3)cn2)cc1` [Compound 925, 2-{4-[2-(4-cyclobutylpiperazin-1-yl)-2-oxoethyl]piperazin-1-yl}-5-(4-methylphenyl)pyrazine], with less than 1000 nM; and `O=C(CN1CCN(c2cccc(Cl)c2Cl)CC1)N1CCN(C2CCCC2)CC1` [Compound 831, 1-cyclopentyl-4-{[4-(2,3-dichlorophenyl)piperazin-1-yl]acetyl}piperazine], with less than 1000 nM.
Take `CC(C)c1ccc(-c2ccc(N3CCN(CC(=O)N4CCN(C5CCC5)CC4)CC3)cc2)cc1` [Compound 778, 1-cyclobutyl-4-{[4-(4′-isopropylbiphenyl-4-yl)piperazin-1-yl]acetyl}piperazine]: the Ki is less than 1000 nM.
The same measure, in the same setting: then `CCC(C)N1CCN(C(=O)CN2CCN(c3ccc(Cl)c(C)c3)CC2)CC1` (stereo not drawn) [Compound 878, 1-sec-butyl-4-{[4-(4-chloro-3-methylphenyl)piperazin-1-yl]acetyl}piperazine], with less than 1000 nM; and `O=C(CN1CCN(c2ccc(Cl)c(Cl)c2)CC1)N1CCN(C2CCCCC2)CC1` [Compound 815, 1-cyclohexyl-4-{[4-(3,4-dichlorophenyl)piperazin-1-yl]acetyl}piperazine], with less than 1000 nM; and `O=C(CN1CCN(c2cnc(-c3ccc(Cl)c(C(F)(F)F)c3)cn2)CC1)N1CCN(C2CCC2)CC1` [Compound 914, 2-[4-chloro-3-(trifluoromethyl)phenyl]-5-{4-[2-(4-cyclobutylpiperazin-1-yl)-2-oxoethyl]piperazin-1-yl}pyrazine], with less than 1000 nM.

Still in this assay, the particulars now being: Table II, "*" in Ki; assay of Example 7; read-out: Ki.
As to `O=C(CN1CCN(c2ccc(-c3cccc(OC(F)(F)F)c3)cc2)CC1)N1CCN(C2CCC2)CC1` [Compound 587, 1-cyclobutyl-4-({4-[3′-(trifluoromethoxy)biphenyl-4-yl]piperazin-1-yl}acetyl)piperazine], the inhibition constant Ki was less than 1000 nM.
On the same count and under the same terms, then `O=C(CN1CCN(c2ccc(C(=O)N3CC=CCC3)cn2)CC1)N1CCN(C2CCC2)CC1` [Compound 609, 1-cyclobutyl-4-({4-[5-(3,6-dihydropyridin-1(2H)-ylcarbonyl)pyridin-2-yl]piperazin-1-yl}acetyl)piperazine], with less than 1000 nM.

The assay is the same for the next values; noted with them: Table II; assay of Example 7; "*" in Ki; read-out: Ki.
In the case of `N#Cc1ccc(-c2cnc(N3CCN(CC(=O)N4CCN(C5CCC5)CC4)CC3)cn2)cc1` [Compound 1098, 4-(5-{4-[2-(4-cyclobutylpiperazin-1-yl)-2-oxoethyl]piperazin-1-yl}pyrazin-2-yl)benzonitrile], the Ki was less than 1000 nM.
The same measure, in the same setting: then `COc1ccc(-c2ccc(-c3ccc(N4CCN(CC(=O)N5CCN(C6CCC6)CC5)CC4)nn3)cc2)cc1` [Compound 1026, 3-{4-[2-(4-cyclobutylpiperazin-1-yl)-2-oxoethyl]piperazin-1-yl}-6-(4′-methoxybiphenyl-4-yl)pyridazine], with less than 1000 nM; and `O=C(CN1CCN(c2cnc(Br)cn2)CC1)N1CCN(C2CCC2)CC1` [Compound 983, 2-bromo-5-{4-[2-(4-cyclobutylpiperazin-1-yl)-2-oxoethyl]piperazin-1-yl}pyrazine], with less than 1000 nM.
On the same count and under the same terms, the result for `CN(C(=O)c1ccc(N2CCN(CC(=O)N3CCN(C4CCC4)CC3)CC2)cc1)C1CCCCC1` [Compound 1128, 4-{4-[2-(4-cyclobutylpiperazin-1-yl)-2-oxoethyl]piperazin-1-yl}-N-cyclohexyl-N-methylbenzamide] reads less than 1000 nM; that for `COc1ccc(C)cc1-c1cnc(N2CCN(CC(=O)N3CCN(C4CCC4)CC3)CC2)cn1` [Compound 958, 2-{4-[2-(4-cyclobutylpiperazin-1-yl)-2-oxoethyl]piperazin-1-yl}-5-(2-methoxy-5-methylphenyl)pyrazine], less than 1000 nM; that for `CC(C)N(C)C(=O)c1cccc(N2CCN(CC(=O)N3CCN(C4CCC4)CC3)CC2)c1` [Compound 1067, 3-{4-[2-(4-cyclobutylpiperazin-1-yl)-2-oxoethyl]piperazin-1-yl}-N-isopropyl-N-methylbenzamide], less than 1000 nM.
Still for that read-out and setting: the result for `CNC(=O)c1ccc(N2CCN(CC(=O)N3CCN(C4CCC4)CC3)CC2)cc1` [Compound 1122, 4-{1-[2-(4-cyclobutylpiperazin-1-yl)-2-oxoethyl]piperazin-1-yl}-N-methylbenzamide] reads less than 1000 nM.
As for `N#Cc1cccc(-c2ccc(N3CCN(CC(=O)N4CCN(C5CCC5)CC4)CC3)nn2)c1` [Compound 997, 3-(6-{4-[2-(4-cyclobutylpiperazin-1-yl)-2-oxoethyl]piperazin-1-yl}pyridazin-3-yl)benzonitrile], the Ki is less than 1000 nM.
Same read-out and setting: the result for `Cc1cc(C)c(-c2cnc(N3CCN(CC(=O)N4CCN(C5CCC5)CC4)CC3)cn2)c(C)c1` [Compound 974, 2-{4-[2-(4-cyclobutylpiperazin-1-yl)-2-oxoethyl]piperazin-1-yl}-5-mesitylpyrazine] reads less than 1000 nM; that for `COc1ccc(-c2ccc(N3CCN(CC(=O)N4CCN(C5CCC5)CC4)CC3)nn2)cc1C` [Compound 1036, 3-{4-[2-(4-cyclobutylpiperazin-1-yl)-2-oxoethyl]piperazin-1-yl}-6-(4-methoxy-3-methylphenyl)pyridazine], less than 1000 nM; that for `COc1cc(F)c(-c2ccc(N3CCN(CC(=O)N4CCN(C5CCC5)CC4)CC3)nn2)cc1F` [Compound 1028, 3-{4-[2-(4-cyclobutylpiperazin-1-yl)-2-oxoethyl]piperazin-1-yl}-6-(2,5-difluoro-4-methoxyphenyl) pyridazine], less than 1000 nM.

The assay is the same for the next values; noted with them: assay of Example 7; "*" in Ki of Table II; read-out: Ki.
With `O=C(NC1CCCCC1)c1ccc(N2CCN(CC(=O)N3CCN(C4CCC4)CC3)CC2)cc1` [Compound 1139, 4-{4-[2-(4-cyclobutylpiperazin-1-yl)-2-oxoethyl]piperazin-1-yl}-N-cyclohexylbenzamide], the Ki was less than 1000 nM.
Same read-out and setting: the result for `CC(C)CNC(=O)c1ccc(N2CCN(CC(=O)N3CCN(C4CCC4)CC3)CC2)nc1` [Compound 1177, 6-{4-[2-(4-cyclobutylpiperazin-1-yl)-2-oxoethyl]piperazin-1-yl}-N-isobutylnicotinamide] reads less than 1000 nM; that for `CCOc1cccc(C(=O)NC2CCN(CC(=O)N3CCN(C4CCC4)CC3)CC2)c1` [Compound 1213, N-{1-[2-(4-cyclobutylpiperazin-1-yl)-2-oxoethyl]piperidin-4-yl}-3-ethoxybenzamide], less than 1000 nM; that for `CCC(C)NC(=O)c1ccc(N2CCN(CC(=O)N3CCN(C4CCC4)CC3)CC2)cc1` (stereo not drawn) [Compound 1204, N-(sec-butyl)-4-{4-[2-(4-cyclobutylpiperazin-1-yl)-2-oxoethyl]piperazin-1-yl}benzamide], less than 1000 nM.
On the same count and under the same terms, the result for `O=C(CN1CCC2(CC1)C(=O)NCN2c1ccccc1)N1CCN(C2CCC2)CC1` [Compound 1190] reads less than 1000 nM; that for `CC(C)N1CN(c2ccccc2)C2(CCN(CC(=O)N3CCN(C4CCC4)CC3)CC2)C1=O` [Compound 1191], less than 1000 nM.
The same measure, in the same setting: then `CC(C)(C)CNC(=O)c1ccc(N2CCN(CC(=O)N3CCN(C4CCC4)CC3)CC2)cc1` [Compound 1145, 4-{4-[2-(4-cyclobutylpiperazin-1-yl)-2-oxoethyl]piperazin-1-yl}-N-(2,2-dimethylpropyl) benzamide], with less than 1000 nM.

Staying with this assay, now noted: assay of Example 7; symbol * in column headed Ki of Table II; read-out: Ki.
For `CC(C)N1CCN(C(=O)CN2CCN(c3ccc(F)cc3F)CC2)CC1` [Compound 264, 1-(2,4-difluorophenyl)-4-[2-(4-isopropylpiperazin-1-yl)-2-oxoethyl]piperazine], the inhibition constant Ki was less than 1000 nM.
For `CC(=O)c1ccc(N2CCN(CC(=O)N3CCN(C4CCC4)CC3)[C@@H](C)C2)cc1` [Compound 307, 1-(4-{4-[2-(4-cyclobutylpiperazin-1-yl)-2-oxoethyl]-3-methylpiperazin-1-yl}phenyl)ethanone], the Ki is less than 1000 nM.
Same read-out and setting: the result for `O=C(CN1CCN(c2ccc(Br)cc2)CC1)N1CCN(C2CCCCC2)CC1` [Compound 338, 1-(4-bromophenyl)-4-[2-(4-cyclohexylpiperazin-1-yl)-2-oxoethyl]piperazine] reads less than 1000 nM; that for `CC1CCN(C2CCN(CC(=O)N3CCN(C4CCCCC4)CC3)CC2)CC1` [Compound 439, 1′-[2-(4-cyclohexylpiperazin-1-yl)-2-oxoethyl]-4-methyl-1,4′-bipiperidine], less than 1000 nM.
Turning to `CC(C)N1CCN(C(=O)CN2CCN(c3ccc(Cl)c(Cl)c3)CC2)CC1` [Compound 283, 1-(3,4-dichlorophenyl)-4-[2-(4-isopropylpiperazin-1-yl)-2-oxoethyl]piperazine], the Ki was less than 1000 nM.
